Calls of active or inactive are those of the source. The calls are words filed in the database; no cut-off is given here.
How the values were obtained:
CWR22R [1] = experiment: Induction of DNA damage in human 22Rv1 cells assessed as increase in number of gamma-H2AX foci incubated for 12 hrs by DAPI staining based immunofluorescence analysis; assay type: functional, cell-based; settings: dose 50-200 µM
[2] = AUC (0 to t) in Sprague-Dawley rat at 5 mg/kg, iv measured after 24 hrs by UPLC-MS/MS analysis; assay type: ADME, organism-based; settings: in vivo
[3] = Subacute toxicity in male ICR mouse assessed as decrease in hemoglobin at 175 mg/kg, po administered via gavage for 30 days by blood routine test; assay type: organism-based; settings: in vivo, 720 h, time 30 day
[4] = C0 in Sprague-Dawley rat at 5 mg/kg, iv measured after 24 hrs by UPLC-MS/MS analysis; assay type: ADME, organism-based; settings: in vivo
[5] = target: Poly [ADP-ribose] polymerase 1 (Homo sapiens, UniProt P09874); experiment: Inhibition of PARP1 (unknown origin) by biotinylated NAD+-based luminescence assay
Sequence of Poly [ADP-ribose] polymerase 1 (P09874 whole entry): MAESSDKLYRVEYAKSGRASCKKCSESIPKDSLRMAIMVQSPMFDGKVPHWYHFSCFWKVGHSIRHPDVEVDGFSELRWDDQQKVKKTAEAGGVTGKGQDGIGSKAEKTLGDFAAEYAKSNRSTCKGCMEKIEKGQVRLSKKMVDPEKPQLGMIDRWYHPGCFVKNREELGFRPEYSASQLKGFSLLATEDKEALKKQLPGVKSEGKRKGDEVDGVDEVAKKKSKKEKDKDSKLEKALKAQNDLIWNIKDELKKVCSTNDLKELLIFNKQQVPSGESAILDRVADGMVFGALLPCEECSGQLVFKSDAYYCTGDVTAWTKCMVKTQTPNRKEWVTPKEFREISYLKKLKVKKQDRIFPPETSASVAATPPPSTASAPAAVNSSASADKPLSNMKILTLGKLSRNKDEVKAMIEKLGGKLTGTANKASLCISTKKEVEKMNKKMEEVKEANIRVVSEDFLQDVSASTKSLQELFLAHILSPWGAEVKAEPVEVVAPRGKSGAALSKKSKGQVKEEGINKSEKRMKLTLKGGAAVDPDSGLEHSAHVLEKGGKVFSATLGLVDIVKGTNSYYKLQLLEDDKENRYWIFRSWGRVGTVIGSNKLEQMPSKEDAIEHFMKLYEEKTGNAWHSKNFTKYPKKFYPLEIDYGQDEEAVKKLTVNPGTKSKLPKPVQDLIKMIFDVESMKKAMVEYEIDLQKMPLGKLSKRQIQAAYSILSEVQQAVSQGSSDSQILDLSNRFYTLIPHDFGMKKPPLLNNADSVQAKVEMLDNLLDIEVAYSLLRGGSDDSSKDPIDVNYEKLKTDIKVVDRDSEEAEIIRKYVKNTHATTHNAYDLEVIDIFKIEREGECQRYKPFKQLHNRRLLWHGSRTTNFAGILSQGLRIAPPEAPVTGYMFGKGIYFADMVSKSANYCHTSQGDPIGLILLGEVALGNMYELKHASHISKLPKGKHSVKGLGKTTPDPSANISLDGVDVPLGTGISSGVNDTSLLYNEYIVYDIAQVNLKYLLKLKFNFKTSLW

CWR22R [6] = experiment: Antiproliferative activity against human 22Rv1 cells assessed as reduction in cell viability at 125 uM in presence of DUPA; assay type: functional, cell-based
[7] = Clearance in Sprague-Dawley rat at 5 mg/kg, iv measured after 24 hrs by UPLC-MS/MS analysis; assay type: ADME, organism-based; settings: in vivo
[8] = AUC (0 to t) in Sprague-Dawley rat at 100 mg/kg, po measured after 24 hrs by UPLC-MS/MS analysis; assay type: ADME, organism-based; settings: in vivo
CWR22R [9] = experiment: Antitumor activity against human 22Rv1 cells xenografted in male BALB/c nude mouse at 175 mg/kg administered via gavage; assay type: functional, organism-based
LNCaP = experiment: Antiproliferative activity against human LNCaP cells with high PSMA expression assessed as effect on cell viability incubated for 72 hrs by MTT assay; assay type: functional, cell-based
[10] = AUC (0 to infinity) in Sprague-Dawley rat at 100 mg/kg, po measured after 24 hrs by UPLC-MS/MS analysis; assay type: ADME, organism-based; settings: in vivo
[11] = Subacute toxicity in male ICR mouse assessed as decrease in WBC at 175 mg/kg, po administered via gavage for 30 days by blood routine test; assay type: organism-based; settings: in vivo, 720 h, time 30 day
[12] = Subacute toxicity in male ICR mouse assessed as decrease in red blood cells at 175 mg/kg, po administered via gavage for 30 days by blood routine test; assay type: organism-based; settings: in vivo, 720 h, time 30 day
[13] = Toxicity in male BALB/c nude mouse xenografted with human 22Rv1 cells assessed as decrease in body weight at 175 mg/kg administered via gavage; assay type: organism-based; settings: in vivo, po
[14] = Cmax in Sprague-Dawley rat at 100 mg/kg, po measured after 24 hrs by UPLC-MS/MS analysis; assay type: ADME, organism-based; settings: in vivo
[15] = Drug uptake in PSMA positive human 22Rv1 cells at 10 uM measured after 1 to 6 hrs in presence of PSMA ligand DUPA by LC-MS/MS analysis; assay type: ADME, cell-based; settings: cwr22r, time 1-6 hrs
[16] = Subacute toxicity in male ICR mouse assessed as decrease in neutrophils at 175 mg/kg, po administered via gavage for 30 days by blood routine test; assay type: organism-based; settings: in vivo, 720 h, time 30 day
PC-3 = experiment: Antiproliferative activity against PSMA negative human PC-3 cells assessed as effect on cell viability incubated for 72 hrs by MTT assay; assay type: functional
CWR22R [17] = experiment: Induction of apoptosis in human 22Rv1 cells assessed as increase in cleaved caspase-3 expression at 100 uM incubated for 72 hrs by Western blot analysis; assay type: functional, cell-based
[18] = AUC (0 to infinity) in Sprague-Dawley rat at 5 mg/kg, iv measured after 24 hrs by UPLC-MS/MS analysis; assay type: ADME, organism-based; settings: in vivo
[19] = Drug uptake in PSMA positive human 22Rv1 cells at 10 uM measured after 1 to 6 hrs by LC-MS/MS analysis; assay type: ADME, cell-based; settings: cwr22r, time 1-6 hrs
[20] = Half-life in Sprague-Dawley rat at 5 mg/kg, iv measured after 24 hrs by UPLC-MS/MS analysis; assay type: ADME, organism-based; settings: in vivo
CWR22R [21] = experiment: Antiproliferative activity against human 22Rv1 cells with high PSMA expression assessed as effect on cell viability incubated for 72 hrs by MTT assay; assay type: functional, cell-based; settings: 22Rv1, 72 h
[22] = Subacute toxicity in male ICR mouse assessed as decrease in body weight at 175 mg/kg, po administered via gavage for 30 days; assay type: organism-based; settings: in vivo, 720 h, time 30 day
CWR22R [23] = experiment: Antitumor activity against human 22Rv1 cells xenografted in male BALB/c nude mouse assessed as tumor growth inhibition at 175 mg/kg administered via gavage relative to control; assay type: functional; settings: 22Rv1, po, read-out: TGI
[24] = Subacute toxicity in male ICR mouse assessed as decrease in hematocrit at 175 mg/kg, po administered via gavage for 30 days by blood routine test; assay type: organism-based; settings: in vivo, 720 h, time 30 day
[25] = Tmax in Sprague-Dawley rat at 100 mg/kg, po measured after 24 hrs by UPLC-MS/MS analysis; assay type: ADME, organism-based; settings: in vivo
[26] = Antiproliferative activity against PSMA negative human RWPE-1 cells assessed as effect on cell viability incubated for 72 hrs by MTT assay; assay type: toxicity, cell-based; settings: RWPE-1 cells (PSMA negative)
[27] = Oral bioavailability in Sprague-Dawley rat at 100 mg/kg measured after 24 hrs by UPLC-MS/MS analysis; assay type: ADME, organism-based; settings: in vivo
[28] = Subacute toxicity in male ICR mouse assessed as decrease in lymphocytes at 175 mg/kg, po administered via gavage for 30 days by blood routine test; assay type: organism-based; settings: in vivo, 720 h, time 30 day
[29] = Volume of distribution in Sprague-Dawley rat at 5 mg/kg, iv measured after 24 hrs by UPLC-MS/MS analysis; assay type: ADME, organism-based; settings: in vivo
[30] = Half-life in Sprague-Dawley rat at 100 mg/kg, po measured after 24 hrs by UPLC-MS/MS analysis; assay type: ADME, organism-based; settings: in vivo
[31] = Subacute toxicity in male ICR mouse assessed as decrease in lymphocytes at 195 to 390 mg/kg, po administered via gavage for 30 days by blood routine test; assay type: organism-based; settings: in vivo, 720 h, dose 195-390 mg/kg, time 30 day
CWR22R [32] = experiment: Antitumor activity against human 22Rv1 cells xenografted in male BALB/c nude mouse assessed as tumor growth inhibition at 100 mg/kg administered via gavage relative to control; assay type: functional; settings: 22Rv1, po, read-out: TGI
[33] = Toxicity in male BALB/c nude mouse xenografted with human 22Rv1 cells assessed as decrease in RBC at 25 to 100 mg/kg administered via gavage by routine blood test; assay type: organism-based; settings: in vivo, po, dose 25-100 mg/kg
[34] = Toxicity in male BALB/c nude mouse xenografted with human 22Rv1 cells assessed as decrease in lymphocytes at 25 to 100 mg/kg administered via gavage by routine blood test; assay type: organism-based; settings: in vivo, po, dose 25-100 mg/kg
[35] = Subacute toxicity in male ICR mouse assessed as decrease in hematocrit at 195 to 390 mg/kg, po administered via gavage for 30 days by blood routine test; assay type: organism-based; settings: in vivo, 720 h, dose 195-390 mg/kg, time 30 day
CWR22R [36] = experiment: Antitumor activity against human 22Rv1 cells xenografted in male BALB/c nude mouse administered via gavage; assay type: functional, cell-based; settings: dose 195-390 mg/kg
CWR22R [37] = experiment: Antitumor activity against human 22Rv1 cells xenografted in male BALB/c nude mouse assessed as tumor growth inhibition at 195 to 390 mg/kg administered via gavage relative to control; assay type: functional; settings: dose 195-390 mg/kg
[38] = Toxicity in male BALB/c nude mouse xenografted with human 22Rv1 cells assessed as decrease in body weight at 195 to 390 mg/kg administered via gavage; assay type: organism-based; settings: in vivo, po, dose 195-390 mg/kg
CWR22R [39] = experiment: Antitumor activity against human 22Rv1 cells xenografted in male BALB/c nude mouse assessed as tumor growth inhibition at 25 mg/kg administered via gavage relative to control; assay type: functional; settings: 22Rv1, po, read-out: TGI
[40] = Subacute toxicity in male ICR mouse assessed as decrease in body weight at 195 to 390 mg/kg, po administered via gavage for 30 days; assay type: organism-based; settings: in vivo, 720 h, dose 195-390 mg/kg, time 30 day
[41] = Toxicity in male BALB/c nude mouse xenografted with human 22Rv1 cells assessed as decrease in neutrophils at 25 to 100 mg/kg administered via gavage by routine blood test; assay type: organism-based; settings: in vivo, po, dose 25-100 mg/kg
[42] = Subacute toxicity in male ICR mouse assessed as decrease in red blood cells at 195 to 390 mg/kg, po administered via gavage for 30 days by blood routine test; assay type: organism-based; settings: in vivo, 720 h, dose 195-390 mg/kg, time 30 day
[43] = Subacute toxicity in male ICR mouse assessed as decrease in hemoglobin at 195 to 390 mg/kg, po administered via gavage for 30 days by blood routine test; assay type: organism-based; settings: in vivo, 720 h, dose 195-390 mg/kg, time 30 day
[44] = Toxicity in male BALB/c nude mouse xenografted with human 22Rv1 cells assessed as decrease in body weight at 25 to 100 mg/kg administered via gavage; assay type: organism-based; settings: in vivo, po, dose 25-100 mg/kg
[45] = Subacute toxicity in male ICR mouse assessed as decrease in WBC at 195 to 390 mg/kg, po administered via gavage for 30 days by blood routine test; assay type: organism-based; settings: in vivo, 720 h, dose 195-390 mg/kg, time 30 day
[46] = Toxicity in male BALB/c nude mouse xenografted with human 22Rv1 cells assessed as decrease in WBC at 25 to 100 mg/kg administered via gavage by routine blood test; assay type: organism-based; settings: in vivo, po, dose 25-100 mg/kg
CWR22R [47] = experiment: Antitumor activity against human 22Rv1 cells xenografted in male BALB/c nude mouse assessed as tumor growth inhibition at 50 mg/kg administered via gavage relative to control; assay type: functional; settings: 22Rv1, po, read-out: TGI
[48] = Subacute toxicity in male ICR mouse assessed as decrease in neutrophil at 195 to 390 mg/kg, po administered via gavage for 30 days by blood routine test; assay type: organism-based; settings: in vivo, 720 h, dose 195-390 mg/kg, time 30 day

SMILES | Activity (CWR22R [1]) | AUC(0-t) at 24 h [2] [ng·h/mL] | C0 at 24 h [4] [ng/mL] | IC50 [5] [µM] | Activity (CWR22R [6]) | clearance [7] [mL/min/kg] | AUC(0-t) at 24 h [8] [ng·h/mL] | IC50 (LNCaP) [µM] | AUC(0-inf) [10] [ng·h/mL] | Cmax [14] [ng/mL] | Drug uptake [15] | CC50 (PC-3) [µM] | Activity (CWR22R [17]) | AUC(0-inf) [18] [ng·h/mL] | Drug uptake [19] | half-life [20] [min] | IC50 (CWR22R [21]) [µM] | Tmax [25] [min] | CC50 at 72 h [26] [µM] | bioavailability [27] [%] | also measured
O=C(O)CC[C@H](NC(=O)N[C@@H](CCCCNC(=O)CCC(=O)N1CCN(C(=O)c2cc(Cc3n[nH]c(=O)c4ccccc34)ccc2F)CC1)C(=O)O)C(=O)O | Dose-dependent-effect | 7300 | 12800 | 0.0019 | Not active; Drug Mode Of Action Appears To Be Via Binding To Psma Receptor | 12 | 16300 | 93.9 | 16500 | 5260 | Not_active | > 1000 | Active; Similar To Olaparib-Treated Group | 7460 | Active | 22.7 | 133 | 60 | > 1000 | 11 | Activity [3]: Non-toxic; Activity (CWR22R [9]): Active; Activity [11]: Non-toxic; Activity [12]: Non-toxic; Activity [13]: Non-toxic; Activity [16]: Non-toxic; Activity [22]: Non-toxic; inhibition in vivo at 175 mg/kg (CWR22R [23]): 69%; Activity [24]: Non-toxic; Activity [28]: Non-toxic; Vd [29]: 0.391 L/kg; half-life [30]: 54.8 min
O=C(O)CC[C@H](NC(=O)N[C@@H](CCCCNC(=O)CCC(=O)NC1(C(=O)N2CCN(C(=O)c3cc(Cc4n[nH]c(=O)c5ccccc45)ccc3F)CC2)CC1)C(=O)O)C(=O)O | Dose-dependent-effect | 7310 | 13500 | 0.001 | Not active; Drug Mode Of Action Appears To Be Via Binding To Psma Receptor | 12.2 | 27400 | 80.6 | 27800 | 7310 | Not_active | > 1000 | Active; Similar To Olaparib-Treated Group | 7460 | Active | 21.7 | 84.5 | 60 | > 1000 | 18.6 | Activity [31]: Non-toxic; inhibition in vivo at 100 mg/kg (CWR22R [32]): 70%; Activity [33]: Non-toxic; Activity [34]: Non-toxic; Activity [35]: Non-toxic; Activity (CWR22R [36]): Dose-dependent-effect; TGI (CWR22R [37]): 73%; Activity [38]: Non-toxic; inhibition in vivo at 25 mg/kg (CWR22R [39]): 52%; Activity [40]: Non-toxic; Activity [41]: Non-toxic; Activity [42]: Non-toxic; Activity [43]: Non-toxic; Activity [44]: Non-toxic; Activity [45]: Non-toxic; Activity [46]: Non-toxic; inhibition in vivo at 50 mg/kg (CWR22R [47]): 65%; Vd [29]: 0.383 L/kg; half-life [30]: 61 min; Activity [48]: Non-toxic
